Measured values taken from patent US11370880B1 (FLORIDA ATLANTIC UNIVERSITY BOARD OF TRUSTEES, priority 2018, dated 2022).

System: HUVEC cells
Method: Human umbilical vein endothelial cells (HUVECs) were grown in endothelial growth medium (EGM-2, Lonza) supplemented with 10% fetal bovine serum (Gibco) and 1% PSG (Penicillin-Streptomycin-Glutamine, Gibco). […] At the same time, the cellular toxicity of degradation product of PXDDA on HUVEC cells was also evaluated. For this purpose, 104 cells were first seeded and cultured on the 96-well plates for 3 days. The degradation products were diluted with culture medium to obtain different concentrations (12.5, 25, and 40% v/v), and they were then added into the cells. After 36 h, 20 μl of MTT solution was added and the plated was incubated at 37° C. for 4 h. After adding 200 μl of DMSO, the absorbance was recorded at 570 nm. The measurements were carried out in triplicate.

poly(xylitol-dodecanedioic acid) [PXDDA]
toxicity of degradation products to HUVEC cells (MTT): No tangible toxicity
